Test results published in publication PMC11740379, “Novel Enyne-Modified 1,4-Thiazepines as Epidermal Growth Factor Receptor Inhibitors: Anticancer and Computational Studies” (ACS Omega, 2024).
Where two headings read alike, the source gives them in different places.

Legend:
EGFRT790M kinase = EGFRT790M kinase (Homo sapiens, UniProt P00533, T790M); experiment: EGFR kinase inhibition assay (HTRF KinEASE-TK); format: biochemical
Method: (§1) The inhibitory effects of the target compounds on various EGFR kinases were assessed using a homogeneous time-resolved fluorescence (HTRF) assay, employing the HTRF KinEASE-TK kit (Cat# 62TK0PEC, Cisbio).[18] TZEP7 was tested at a range of diluted concentrations in the presence of 1% dimethyl sulfoxide (DMSO), with the kinase and compounds preincubated for 5 min. The reactions were initiated by adding ATP and TK-substrate-biotin, followed by a 60 min incubation at room temperature. The reactions were then stopped using a stop buffer containing 62.5 nM Strep-XL665 and TK antibody (Ab)-Cryptate. After a 1 h incubation of the plate, readings were taken on a microplate reader under standard HTRF conditions. IC50 values were calculated using GraphPad Prism 5.0 software. Each reaction was duplicated, and at least three independent determinations were conducted. The data were analyzed using GraphPad Prism.

PC-3 cells = experiment: XTT cytotoxicity assay, prostate cancer cells; format: cell-based, human
Method: (§2) The cells were cultured in RPMI medium (Sigma) supplemented with 10% heat-inactivated fetal bovine serum, 1% penicillin, and 1% L-glutamine, and incubated in a humidified CO2 atmosphere at 37 °C.
(§3) To evaluate the cytotoxic effects of TZEPs, which were dissolved in dimethyl sulfoxide (DMSO), the XTT assay (2,3-bis(2-methoxy-4-nitro-5-sulfophenyl)-2H-tetrazolium-5-carboxanilide) was employed. […] Following the incubation, 100 μL of XTT was added to each well, and the plates were incubated for an additional 4 h at 37 °C. The resulting color change was measured by recording the absorbance at 570 nm using a microplate reader (Tecan).
(§4) Conversely, an SI less than 1 means the drug is more toxic to normal cells than to target cells, which is undesirable in therapeutic contexts.

MCF-7 cells = experiment: XTT cytotoxicity assay, breast cancer cells; format: cell-based, human
Method: as §2, §3, §4

EGFRWT kinase = EGFRWT kinase (Homo sapiens, UniProt P00533); experiment: EGFR kinase inhibition assay (HTRF KinEASE-TK); format: biochemical
Sequence of EGFRWT kinase (P00533 25-1210): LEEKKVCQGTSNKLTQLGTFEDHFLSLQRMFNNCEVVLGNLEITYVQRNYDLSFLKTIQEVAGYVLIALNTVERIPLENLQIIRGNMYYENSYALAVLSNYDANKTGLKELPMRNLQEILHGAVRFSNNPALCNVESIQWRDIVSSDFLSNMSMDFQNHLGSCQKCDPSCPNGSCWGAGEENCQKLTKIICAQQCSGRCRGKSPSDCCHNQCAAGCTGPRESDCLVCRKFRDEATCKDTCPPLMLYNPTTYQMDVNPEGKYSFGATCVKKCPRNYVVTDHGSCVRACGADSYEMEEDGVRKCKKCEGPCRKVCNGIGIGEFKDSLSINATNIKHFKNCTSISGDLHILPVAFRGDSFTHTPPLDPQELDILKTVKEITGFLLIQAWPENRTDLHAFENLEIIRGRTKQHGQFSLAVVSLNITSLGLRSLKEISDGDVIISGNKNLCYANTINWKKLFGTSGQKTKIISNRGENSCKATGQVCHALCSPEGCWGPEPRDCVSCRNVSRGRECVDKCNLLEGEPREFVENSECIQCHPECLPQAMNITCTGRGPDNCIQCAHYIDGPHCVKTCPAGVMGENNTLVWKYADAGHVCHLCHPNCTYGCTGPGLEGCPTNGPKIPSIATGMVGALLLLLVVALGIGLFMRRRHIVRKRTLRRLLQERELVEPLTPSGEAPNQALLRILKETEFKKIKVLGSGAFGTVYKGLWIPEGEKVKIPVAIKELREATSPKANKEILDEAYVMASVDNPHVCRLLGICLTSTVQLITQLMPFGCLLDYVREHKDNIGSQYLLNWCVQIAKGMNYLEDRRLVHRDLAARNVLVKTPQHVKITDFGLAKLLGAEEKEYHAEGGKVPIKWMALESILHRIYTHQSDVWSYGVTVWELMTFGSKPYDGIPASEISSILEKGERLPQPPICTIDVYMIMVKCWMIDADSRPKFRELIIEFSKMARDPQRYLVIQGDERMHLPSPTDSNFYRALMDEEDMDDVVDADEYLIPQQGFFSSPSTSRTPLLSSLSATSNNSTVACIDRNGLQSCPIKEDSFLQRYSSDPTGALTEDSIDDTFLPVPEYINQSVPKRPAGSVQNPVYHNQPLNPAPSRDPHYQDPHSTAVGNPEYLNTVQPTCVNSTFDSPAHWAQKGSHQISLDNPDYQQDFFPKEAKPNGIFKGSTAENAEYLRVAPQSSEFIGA
Method: as §1, with “The reactions were then stopped using a stop buffer containing 62.5 nM Strep-XL665 and TK antibody (Ab)-Cryptate.” left out

Bax mRNA = experiment: qRT-PCR of apoptosis-related mRNA; format: cell-based, human; details: 72 h, vs untreated control
Method: (§5) To measure the mRNA expression levels of apoptosis-related genes B-cell lymphoma 2 (Bcl-2), Bcl-2-associated X protein (Bax), Cyclin-dependent kinase 2 (CDK2), and Cyclin E, total mRNA was extracted from cells treated with compound 6f using Trizol reagent (Sigma). cDNA was synthesized from the total mRNA using the Qiagen cDNA synthesis kit according to the manufacturer’s instructions. The following primers, each at a concentration of 350 nM, were employed: Bcl-2; forward ([…]), reverse ([…]); Bax; forward ([…]), reverse ([…]); Caspase-8; forward ([…]), reverse ([…]); Caspase-9; forward (TGTCTACGGCACAGATGGA), reverse (GGACTCGTCTTCAGGGGA); EGFRWT: forward ([…]), reverse (CCTGTGCCAGGGACCTTAC−); EGFRT790 M forward ([…]), reverse ([…]); human GAPDH; forward ([…]), reverse (AGATGGTGATGGGCTTCCC). The PCR mix was prepared with 1× buffer containing 0.2 mM dNTPs, 1.6 mM MgCl2, […] of each primer set, cDNA, and 0.25 U Taq polymerase. The PCR conditions were as follows: an initial denaturation at 95 °C for 60 s, followed by 50 cycles of 95 °C for 15 s, 60 °C for 15 s, and 72 °C for 60 s. The cycle threshold (CT) for each replicate was normalized to the average CT of the endogenous control (GAPDH). The relative quantification of gene expression was calculated using the comparative CT method.[17]

Caspase-8 mRNA = experiment: qRT-PCR of apoptosis-related mRNA; format: cell-based, human; details: 72 h, vs untreated control
Method: as §5

EGFRWT mRNA = experiment: qRT-PCR of EGFR mRNA expression; format: cell-based, human; details: vs untreated control
Method: as §5

Sequence of EGFRT790M kinase (P00533 25-1210 T790M): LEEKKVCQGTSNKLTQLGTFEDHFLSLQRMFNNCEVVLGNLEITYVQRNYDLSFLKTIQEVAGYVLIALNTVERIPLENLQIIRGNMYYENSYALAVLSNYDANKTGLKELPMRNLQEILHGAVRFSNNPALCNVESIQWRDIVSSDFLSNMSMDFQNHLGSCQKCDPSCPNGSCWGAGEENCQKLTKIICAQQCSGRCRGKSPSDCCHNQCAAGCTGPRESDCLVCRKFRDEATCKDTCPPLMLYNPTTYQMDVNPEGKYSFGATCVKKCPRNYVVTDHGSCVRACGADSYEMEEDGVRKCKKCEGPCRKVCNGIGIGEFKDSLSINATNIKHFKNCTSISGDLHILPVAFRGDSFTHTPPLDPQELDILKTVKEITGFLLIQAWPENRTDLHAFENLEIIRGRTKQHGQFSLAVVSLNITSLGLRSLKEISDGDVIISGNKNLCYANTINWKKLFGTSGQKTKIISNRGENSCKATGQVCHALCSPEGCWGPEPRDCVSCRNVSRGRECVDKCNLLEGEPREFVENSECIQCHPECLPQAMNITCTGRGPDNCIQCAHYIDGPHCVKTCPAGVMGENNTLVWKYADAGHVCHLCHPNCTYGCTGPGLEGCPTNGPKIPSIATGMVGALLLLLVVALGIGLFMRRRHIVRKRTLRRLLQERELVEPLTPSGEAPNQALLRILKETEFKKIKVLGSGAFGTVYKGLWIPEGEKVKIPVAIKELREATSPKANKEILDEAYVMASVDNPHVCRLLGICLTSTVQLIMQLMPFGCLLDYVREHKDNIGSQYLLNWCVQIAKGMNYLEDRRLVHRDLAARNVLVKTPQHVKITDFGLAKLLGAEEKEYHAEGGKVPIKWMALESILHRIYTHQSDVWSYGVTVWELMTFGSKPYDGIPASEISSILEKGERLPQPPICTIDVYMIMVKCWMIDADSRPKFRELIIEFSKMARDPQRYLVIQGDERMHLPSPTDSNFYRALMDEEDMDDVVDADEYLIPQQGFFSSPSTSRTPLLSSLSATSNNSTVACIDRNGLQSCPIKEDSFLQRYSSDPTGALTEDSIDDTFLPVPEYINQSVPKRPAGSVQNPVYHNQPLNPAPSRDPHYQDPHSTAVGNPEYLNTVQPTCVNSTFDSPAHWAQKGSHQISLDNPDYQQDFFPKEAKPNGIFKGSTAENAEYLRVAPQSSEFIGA

IC50 (EGFRT790M kinase): 280 nM
IC50 (EGFRT790M kinase; A549 cells): 220 nM
IC50 (EGFRT790M kinase; MCF-7 cells): 290 nM
IC50 (EGFRWT kinase): 380 nM
IC50 (EGFRWT kinase; A549 cells): 360 nM
Compound: Cc1cc(C2=NCC(=CC#Cc3ccccc3)SC(c3ccc(Cl)cc3)=C2)ccc1F [TZEP7]
IC50 (PC-3 cells; Homo sapiens, PC-3, XTT assay, exposure time of the IC50 not stated (24, 48, 72 h tested), read-out: IC50, prostate cancer (PC-3)): 16900 ± 1600 nM
viability at 0.1 µM (PC-3 cells; Homo sapiens, PC-3, 0.1 μM, read-out: cell viability): 83%
viability at 1 µM (PC-3 cells; Homo sapiens, PC-3, 1 μM, read-out: cell viability): 71%
viability at 10 µM (PC-3 cells; Homo sapiens, PC-3, 10 μM, read-out: cell viability): 22%
viability at 50 µM (PC-3 cells; Homo sapiens, PC-3, 50 μM, read-out: cell viability): 18%
viability at 100 µM (PC-3 cells; Homo sapiens, PC-3, 100 μM, read-out: cell viability): 12%
Selectivity index (SI), prostate cancer (PC-3) (PC-3 cells; versus normal cells HEK-293): 3.21
viability at 0.1 µM (MCF-7 cells; Homo sapiens, MCF7, MCF-7, 0.1 μM, read-out: cell viability): 68%
viability at 1 µM (MCF-7 cells; Homo sapiens, MCF7, MCF-7, 1 μM, read-out: cell viability): 54%
viability at 10 µM (MCF-7 cells; Homo sapiens, MCF7, MCF-7, 10 μM, read-out: cell viability): 44%
viability at 50 µM (MCF-7 cells; Homo sapiens, MCF7, MCF-7, 50 μM, read-out: cell viability): 28%
viability at 100 µM (MCF-7 cells; Homo sapiens, MCF7, MCF-7, 100 μM, read-out: cell viability): 18%
IC50 (MCF-7 cells; Homo sapiens, MCF7, XTT assay, exposure time of the IC50 not stated (24, 48, 72 h tested), read-out: IC50, breast cancer (MCF-7)): 14100 ± 2100 nM
IC50 (MCF-7 cells; Homo sapiens, MCF7, dose–response curve of Figure 2, read-out: IC50, MCF-7, dose–response curve): 14200 nM
Selectivity index (SI), breast cancer (MCF-7) (MCF-7 cells; versus normal cells HEK-293): 3.85
increase of Bax mRNA level (Bax mRNA; A549, IC50 concentration): 4.8 fold
increase of Bax mRNA level (Bax mRNA; MCF-7, IC50 concentration): 4.1 fold
increase of Bax mRNA level (Bax mRNA; PC-3, IC50 concentration): 4.3 fold
induction of Caspase-8 mRNA level (Caspase-8 mRNA; A549, IC50 concentration): 3.8 fold
induction of Caspase-8 mRNA level (Caspase-8 mRNA; MCF-7, IC50 concentration): 4.2 fold
induction of Caspase-8 mRNA level (Caspase-8 mRNA; PC-3, IC50 concentration): 5.4 fold
downregulation of EGFRWT mRNA (EGFRWT mRNA; A549, 72 h): 4.6 fold
downregulation of EGFRWT mRNA (EGFRWT mRNA; MCF-7, 72 h): 3.8 fold
downregulation of EGFRWT mRNA (EGFRWT mRNA; PC-3, 72 h): 3.4 fold
